Experiments:
SMYD3 = biological target: T1, SMYD3 (Homo sapiens, UniProt Q9H7B4); assay: GCI biosensor multi cycle kinetic confirmation of hits; assay type: binding; details: two-fold serial dilution starting at 250 μM, 15 °C, global fit 1:1 model
T1 construct: Full length recombinant SMYD3 was produced as previously reported; made in house; host or cells: E. coli BL21(DE3), in some cases Rosetta 2
T1 sequence (Q9H7B4 1-428): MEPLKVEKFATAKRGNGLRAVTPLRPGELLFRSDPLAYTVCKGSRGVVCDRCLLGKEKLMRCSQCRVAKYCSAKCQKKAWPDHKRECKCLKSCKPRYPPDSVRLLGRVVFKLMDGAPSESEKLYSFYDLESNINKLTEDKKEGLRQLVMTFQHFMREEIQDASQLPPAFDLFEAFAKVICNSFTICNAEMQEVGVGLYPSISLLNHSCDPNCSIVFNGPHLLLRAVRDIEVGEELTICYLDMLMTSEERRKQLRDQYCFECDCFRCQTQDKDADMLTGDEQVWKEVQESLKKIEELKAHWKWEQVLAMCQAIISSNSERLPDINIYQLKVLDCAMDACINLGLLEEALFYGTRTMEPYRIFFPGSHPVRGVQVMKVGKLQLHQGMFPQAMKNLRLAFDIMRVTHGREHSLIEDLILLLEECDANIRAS
Method: Selected screening hits were also re-tested by conventional multi cycle kinetic analysis in order to confirm the interactions (some compounds were no longer available). Two variants of the GCI biosensor assay were set up, using different immobilisation levels, to allow the confirmation of hits over a broad range of affinities. […] The kinetics varied for the selected hits (ESI, ^† Fig. S2). All hits were not confirmed (ESI, ^† Fig. S1b).
(§1) All interaction kinetic experiments were conducted with a GCI–flow-based biosensor (WAVEdelta, Creoptix AG/Malvern Panalytical) and PCH WAVEchip (Creoptix AG/Malvern Panalytical) sensor chips. The sensor chips were conditioned using injections of borate buffer (10 mM sodium tetraborate pH 8.5, 1 M NaCl). The running buffer composition, if not otherwise stated, was TBS buffer (50 mM Tris, 150 mM NaCl, 0.5 mM TCEP, 0.05% Tween 20, 1% DMSO, pH 8). SMYD3 was diluted to the desired concentration in 10 mM bis-Tris (pH 7.0) and amine coupled to the sensor surface of the PCH sensor chip. The sensor chip was functionalized at 25 °C by immobilising SMYD3 with EDC and NHS (Xantec) using an injection time of 420 s and a flow rate of 10 μL min^−1. The immobilisation levels ranged from 5000 pg mm^−2 to 18 500 pg mm^−2 surface mass to enable analysis of fragments spanning a broad range of affinities. After immobilization, the surface was deactivated with a running buffer containing 50 mM Tris for 420 s. The GCI data referencing and analysis were performed using WAVEcontrol V4.5 (Creoptix AG).
(§2) Kinetic measurements with controls and fragments were performed at 15 °C. Analysis of controls and follow up of hits was done using the multi cycle kinetic (MCK) injection of a concentration series for the same time, with a two-fold serial dilution starting at 250 μM for each compound. Solvent correction was performed ranging from 0.5–1.8% DMSO. Blank samples of the running buffer, 1× TBS (50 mM Tris, 150 mM NaCl, 0.5 mM TCEP, 0.05% Tween 20, 1% DMSO, pH 8), were injected during the measurements every fifth cycle. The experimental design illustrated in Fig. 1 was used for the screening against all four surfaces. The sensorgrams were adjusted to account for solvent correction and blank subtraction. Kinetic fitting was performed with the Direct Kinetics engine of WAVEcontrol software V4.5 (Creoptix AG) with a suitable fitting model.
FL06268 Superstoichiometric and
Figure 1. Examples of sensorgrams from multicycle kinetic experiments with initial fragment hits and SMYD3. A)
Fragments for which crystal structures of the complex with SMYD3 were obtained. A global fit of the sensorgrams
crystal structures were not obtained. […]

[1] = biological target: T2, SMYD3 in complex with active site-specific tight-binding inhibitor EPZ031686 (Homo sapiens, UniProt Q9H7B4); assay: GCI biosensor kinetic screening, active site blocked SMYD3 surface
T2 construct: Full length recombinant SMYD3 was produced as previously reported; made in house; host or cells: E. coli BL21(DE3), in some cases Rosetta 2
T2 sequence (Q9H7B4 1-428): T1 sequence (Q9H7B4 1-428)
Description: A multiplexed screening assay was set up with three different SMYD3 surfaces and a blank reference surface in flow channels 1–4 (FC1–FC4) (Fig. 2a), as described previously.[5] The apo SMYD3 surface detected fragments interacting anywhere on SMYD3, while a SMYD3 surface blocked by active site-specific tight-binding inhibitor EPZ031686 detected compounds binding elsewhere. The denatured surface served as a reference, detecting fragments binding to unfolded proteins, also potentially present to a significant degree in the other two surfaces.
The library was screened using the approach described in Fig. 1, i.e. injection of fragments at 250 μM for increasing durations of time in a single cycle, using a flow rate of 100 μL min^−1, data acquisition set to 40 Hz and with an association time of 5 s and dissociation of 20 s. Each fragment was addressed to all four channels and interactions with the native and blocked surfaces compared. The experimental conditions were chosen to ensure that the assay could reliably characterize the fast and transient interactions expected from typical fragments.
The kinetic screening of 1056 compounds was successfully completed in 72 hours. […] Hits were identified with full kinetic information using dissociation phases.
as §1, §2

- Outcome of multicycle kinetic experiment (sensorgram assessment) (SMYD3): Superstoichiometric
- LE (ligand efficiency) ([1]; LE = −RT ln(KD)/n, blocked SMYD3 surface): 0.63 (kcal^-1 mol^-1)/HA
- Kd ([1]; initial kinetic screening, fragment 250 μM, 15 °C, SMYD3 blocked by EPZ031686): 24 µM
- kd ([1]; initial kinetic screening, fragment 250 μM, 15 °C, SMYD3 blocked by EPZ031686, 1:1 model): 0.83 s⁻¹
- kon at 250 µM ([1]; initial kinetic screening, fragment 250 μM, 15 °C, SMYD3 blocked by EPZ031686, 1:1 model, read-out: ka): 34100 M⁻¹ s⁻¹
SMILES: Cn1cnc(S(N)(=O)=O)c1 [FL06268]
